# Test results: US20240358683A1, “COMPOSITION FOR PREVENTING OR TREATING NEURODEGENERATIVE DISEASE COMPRISING COMPOUND INDUCING EXPRESSION OF ANTI-AGING GENE KLOTHO” (KLOTHO SCIENCES, priority 2021, published 2024)
# Tests used:
# [1] = system: human klotho gene; test: Luciferase expression experiment, human klotho promoter reporter (1.7 kbp / 240 bp) in RPTEC cells; assay type: cell-based; conditions: 5 μM, 24 hours, compared among Comparative Examples 1 to 4, FIG. 1
# Method: (§1) In order to evaluate whether the klotho gene was expressed by the evaluation of luciferase activity, human renal proximal tubule epithelial cells (RPTECs) (ATCC CRL-4031), which are epithelial cells of the proximal tubule of the human kidneys, were purchased from Lonza, USA and used.
# (§2) For culturing, a Renal Epithelial Growth Medium (REGM™) Bullet kit, also manufactured by the same Lonza company, was used, and the cells were cultured under conditions of 37° C. and 5% CO2. As a plasmid for luciferase expression, a plasmid in which the promoter site of a human KL (klotho) gene was disposed to regulate the expression of a firefly luciferase gene was used.
# The plasmid was incorporated into cells using an X-treme GENE transfection reagent from Roche. The activity of luciferase expressed in cells was measured using a Dual-Luciferase reporter assay system manufactured by Promega. After the cultured cells were treated with each compound at an indicated concentration for 24 hours, the activity of luciferase was measured. It is indirectly shown that the expression of the klotho gene may be increased when the activity of luciferase is high. […]
# [2] = system: human klotho gene; test: Luciferase expression experiment, reporter gene pHKP-luc (promoter up to -2.1 kb upstream of the human klotho gene) in RPTECs; assay type: cell-based
# Method: as §1, §2
# The plasmid was incorporated into cells using an X-treme GENE transfection reagent from Roche. The activity of luciferase expressed in cells was measured using a Dual-Luciferase reporter assay system manufactured by Promega. After the cultured cells were treated with each compound at an indicated concentration for 24 hours, the activity of luciferase was measured. It is indirectly shown that the expression of the klotho gene may be increased when the activity of luciferase is high.
# The results of confirming the expression of a reporter gene by treating RPTECs, which are epithelial cells of the proximal tubule of the human kidneys, with Examples 1 to 6 at concentrations of 0.5, 1 and 5 μM and Comparative Example 1 at a concentration of 5 μM and using a reporter gene (pHKP-luc) including a promoter included up to −2.1 kb upstream of the human klotho gene are illustrated in FIGS. 2 and 3.
# [3] = system: klotho (KL) gene; test: Quantitative evaluation of klotho (KL) gene expression level using real-time PCR in RPTEC cells; assay type: cell-based, human; conditions: RPTEC cells treated for 6 hours; vs Comparative Example 1; FIG. 4
# Method: For RNA extraction from RPTEC cells, which are epithelial cells of the proximal tubule of the human kidneys, treated with the compounds of Comparative Example 1 and Examples 1 and 2 for 6 hours, an RNeasy kit from Qiagen Inc. was used. The results of preparing cDNA from extracted RNA using a Superscript II kit from Thermo Fisher Scientific, Inc. and performing the quantitative evaluation using Taqman Gene Expression assays from Applied Biosystems as a klotho (KL) gene-specific kit are illustrated in FIG. 4.
# [4] = system: 5×FAD mice; test: Passive avoidance experiment in 5×FAD mice; assay type: in vivo; conditions: 10 mg/kg p.o. daily for 4 weeks, compared to normal mice, FIG. 12
# From the text: (§3) In this experiment, 5×FAD mice aged 4 months or 6 months were used. 5×FAD mice are Alzheimer's mice genetically modified to overproduce beta amyloid (Aβ, β amyloid) and were provided by the KIST Research Animal Resource Center, which maintains and sells them. Normal control (WT) mice, which are not genetically modified to overproduce β-amyloid (Aβ), were provided by the KIST Research Animal Resource Center. The animals were acclimatized for 1 week before the experiments. Mice were kept on an ad libitum diet in an animal room maintained at 22±2° C. and 40-60% humidity, and the light and dark cycles were controlled at 12-hour intervals. […]
# Animal model mice and normal control mice received vehicle (5% DMSO+65% PEG400+30% Saline) or vehicle with KS1 (Example 10) dissolved in it orally (p.o.) at a concentration of 10 mg/kg daily for 4 or 12 weeks. […] The body weight was measured weekly during the treatment period, and after the end of the treatment, the cognitive function was tested and sacrificed, and the organs were harvested to confirm the changes through biochemical methods. […]
# (§4) All data were expressed as mean (S.E.M), and differences between groups were determined using one-way ANOVA and Tukey's multiple comparisons test. When it was determined that there was a statistical difference, p<0.05 *, p<0.01 **, p<0.001 *** were indicated.
# [5] = system: NeuN; test: NeuN immunohistochemistry of brain tissue sections, 5×FAD cognitive dysfunction animal model; assay type: in vivo; conditions: 5×FAD mice, 10 mg/kg p.o. daily, FIG. 10
# From the text: (§5) In this experiment, 5×FAD mice aged 4 months or 6 months were used. 5×FAD mice are Alzheimer's mice genetically modified to overproduce beta amyloid (Aβ, β amyloid) and were provided by the KIST Research Animal Resource Center, which maintains and sells them. Normal control (WT) mice, which are not genetically modified to overproduce β-amyloid (Aβ), were provided by the KIST Research Animal Resource Center. The animals were acclimatized for 1 week before the experiments. Mice were kept on an ad libitum diet in an animal room maintained at 22±2° C. and 40-60% humidity, and the light and dark cycles were controlled at 12-hour intervals. All animal experiments were performed in accordance with the animal care and use regulations of the Institutional Animal Care and Use Committee of the Korea Advanced Institute of Science and Technology (KIST).
# (§6) Animal model mice and normal control mice received vehicle (5% DMSO+65% PEG400+30% Saline) or vehicle with KS1 (Example 10) dissolved in it orally (p.o.) at a concentration of 10 mg/kg daily for 4 or 12 weeks. Three mice were used per experimental group. The body weight was measured weekly during the treatment period, and after the end of the treatment, the cognitive function was tested and sacrificed, and the organs were harvested to confirm the changes through biochemical methods.
# as §4
# (§7) The fluorescence level of NeuN measured in each region (CTX: neocortex, CA: amygdala, DG: dentate gyrus) of brain tissue sections isolated from control (CTL) and KS1 1-month and 3-month treatment groups of 5×FAD cognitive dysfunction animal model and normal control animal model was investigated by Immunohistochemistry.
# [6] = system: HT22 cells; test: Neuronal inflammation inhibition, LPS-induced cytotoxicity (Cyto X cell viability assay); assay type: cell-based, mouse; conditions: 2.5 μM, LPS 1 μg/mL 24 hours, FIG. 8
# Method: (§8) HT22 cells, neuronal cells derived from mouse hippocampus, were cultured in DMEM culture medium supplemented with 10% FBS. Cell cultures were incubated in a 37° C. incubator at 5% CO2, and when the cells grew to saturate the surface of the culture dish by 80%, they were treated with 0.05% trypsin and transferred to new culture dishes for passage. The compound was added to the medium at each passage to maintain a final concentration of 2.5 μM. Cells with only DMSO as solvent were used as a negative control, and cells from three passages (#5) were used as a non-aging control. All senescent cells were cultured in 20 passages (#25).
# Cells were seeded at 10,000 cells in 160 μl of medium into each well of a 96-well plate and incubated in a 37° C. incubator at 5% CO^2 for 24 h. The compounds were added to the culture medium to a final concentration of 2.5 μM. After incubation, LPS (lipopolysaccharide) from Cell application was added at a concentration of 1 μg/mL and incubated for another 24 hours. The Cyto X cell viability assay kit from the same company was then added 20 μl to each well and incubated for 1 to 4 hours. The color change was then measured at 450 nm.
# [7] = system: phospho-Tau; test: phospho-Tau immunohistochemistry of brain tissue sections, 5×FAD cognitive dysfunction animal model; assay type: in vivo; conditions: 5×FAD mice, 10 mg/kg p.o. daily, FIG. 9
# From the text: as §5, §6, §4
# as §7, with “levels” for “level”, “phospho-Tau” for “NeuN”, “(HPC: hippocampus; CTX: neocortex)” for “(CTX: neocortex, CA: amygdala, DG: dentate gyrus)”, “were” for “was”
# [8] = system: human kidney-2 (HK2) cells; test: Toxicity test, EZ-Cytox kit; assay type: cell-based; conditions: 12.5 μM or 25 μM, 24 hours, FIG. 6
# Method: Cultured human kidney-2 (HK2) cells were treated with Comparative Example 1, Example 2 and Examples 9 to 10 at a concentration of 25 μM or 12.5 μM, and after 24 hours, cytotoxicity was measured using an EZ-Cytox kit.
# [9] = system: HT22 cells; test: Neuronal senescence inhibition, senescence β-galactosidase staining; assay type: cell-based, mouse; conditions: FIG. 7
# Method: as §8
# To check the degree of senescence of the cells, “Senescence β-galactosidase staining kit” from Cell Signaling Technology was used. The staining solution was added to the cells on the day of the experiment and the stained cells were checked 8 hours later. The number of stained cells was determined and expressed as a percentage of the total number of cells observed under a 200× microscope, and the number of stained cells in three different locations per sample was counted and averaged. As the expression of β-galactosidase enzyme increases as the aging of cells progresses, stained cells can be judged as more aged cells than unstained cells.
# [10] = system: 5×FAD mice; test: Novel object recognition test (NOR) in 5×FAD mice; assay type: in vivo; conditions: 10 mg/kg p.o. daily, compared to vehicle, FIG. 11
# From the text: as §3
# Animal model mice and normal control mice received vehicle (5% DMSO+65% PEG400+30% Saline) or vehicle with KS1 (Example 10) dissolved in it orally (p.o.) at a concentration of 10 mg/kg daily for 4 or 12 weeks. […] The body weight was measured weekly during the treatment period, and after the end of the treatment, the cognitive function was tested and sacrificed, and the organs were harvested to confirm the changes through biochemical methods.
# The novel object recognition test is a modification of the existing method and consists of an adaptation period, an exploration period, and a novel object recognition period. […] The next day, one of the objects was replaced with a new object and the animal's movement was measured for 10 minutes. […]
# [11] = system: klotho (KL) gene; test: Quantitative evaluation of klotho (KL) gene expression level using general PCR in RPTEC cells; assay type: cell-based, human; conditions: 2.5 μM, 6 hours, FIG. 5
# Method: After RPTEC cells, which are epithelial cells of the proximal tubule of the human kidneys, were each treated with the compounds of Examples 7 to 10 at 2.5 μM for 6 hours, RNA was extracted from the cells, and cDNA was prepared from the extracted RNA using a Superscript II kit from Thermo Fisher Scientific, Inc., and then general PCR was performed.
# Information on the primers used in the experiment is as follows. • KL-F […] (SEQ ID NO: 1) • KL-R […] (SEQ ID NO: 2) • GAPDH-F […] (SEQ ID NO: 3) • GAPDH-R […] (SEQ ID NO: 4)
# The DNA amplified by PCR was confirmed by staining with ethidium bromide after electrophoresis on an agarose gel, and the amounts of DNA in the band were quantitatively compared using the SPEedyQuant program, and are illustrated in FIG. 5.
# [12] = RPTECs, Examples at 0.5, 1 and 5 μM vs Comparative Example 1 at 5 μM, FIG. 2
structure (smiles),measurement,setting,value
"O=C(Nc1ccccc1Cl)c1c[nH]c2ccccc12 [Comparative Example 1, N-(2-chlorophenyl)-1H-indole-3-carboxamide]",luciferase activity,[1],the highest
"O=C(Nc1nc2ccccc2o1)c1ccc([N+](=O)[O-])cc1Cl [Example 1, N-(benzo[d]oxazol-2-yl)-2-chloro-4-nitrobenzamide]",expression of the reporter gene (pHKP-luc),[2]; [12],level similar to that of Comparative Example 1
Cc1ccc2oc(Nc3ccc(Cl)c(Cl)c3)nc2c1 [Example 2],"klotho (KL) gene mRNA expression level, real-time PCR",[3],level similar to that of Comparative Example 1
same,expression of the reporter gene (pHKP-luc),"[2]; RPTEC cells, 5 μM, vs Comparative Example 1, FIG. 3",level similar to that of Comparative Example 1
same,expression of the reporter gene (pHKP-luc),[2]; [12],level similar to that of Comparative Example 1
"Fc1ccc(Nc2nc3ccccc3o2)cc1F [Example 10, N-(3,4-difluorophenyl)benzo[d]oxazol-2-amine]","spatial learning and memory performance, passive avoidance test",[4],maintained a similar level of performance to normal mice
same,expression of NeuN neuromarker protein,[5]; compared to vehicle,increased to a statistically significant level
same,"NeuN, Cornu Ammonis (CA)",[5],an increase in NeuN was confirmed
same,"NeuN, dentate gyrus (DG)",[5],no significant increase
same,"NeuN, primary somatosensory cortex (CTX)",[5],no significant increase
same,percentage of cells killed by LPS treatment,"[6]; HT22 cells cultured for 5 passages, DMSO control 50%",45%
same,percentage of cells killed by LPS treatment,"[6]; HT22 cells cultured for 20 passages, DMSO control about 80%",60%
same,"expression of phospho-Tau protein, hippocampus (HPC) region",[7]; 1-month and 3-month treatment,reduced expression of the proteins was seen in only the 3-month treated mice
same,"expression of phospho-Tau protein, primary somatosensory cortex (CTX) region",[7]; 1-month and 3-month treatment,reduced expression of the proteins was seen in both 1- and 3-month treated mice
same,expression of phospho-Tau protein,[7]; compared to vehicle,reduced to a statistically significant level
same,cytotoxicity,[8],the least toxicity
same,improvement of toxicity compared to Comparative Example 1,[8],≥ 20%
same,β-galactosidase stained cells as a percentage of the total number of cells,"[9]; HT22 cells cultured for 20 passages, 2.5 μM in the medium, DMSO control about 50%",40%
same,decrease in the degree of senescence compared to cells grown in medium containing DMSO,"[9]; HT22 cells, 20 passages, 2.5 μM",20%
same,object detection ability (NOR),[10],statistically significant increase in object detection ability
same,expression level of the klotho (KL) gene relative to Comparative Example 1,[11],about 10 times
